Our source for the IC50 values is US20240190890A1, “MK2 INHIBITORS AND USES THEREOF” (Bristol-Myers Squibb Company, priority 2022, published 2024).

As usually defined, the IC50 is the concentration at which inhibition is half-maximal.

In this assay the target is p38a activated, mitogen-activated protein kinase-activated protein kinase 2 (MAPKAP-K2 or MK2) enzyme (Homo sapiens (Human), UniProt P49137). The assay is described as follows: MK2 Omnia continuous-read kinase assay for compound potency. Format: biochemical. Conditions: [MK-2]=0.4 nM, [ATP]=10 μM, [ST3-Sox]=10 μM; room temperature. In a few lines: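 Continuous Sox-peptide fluorescence read (ex360/em485) every 71 s over 2 h at room temperature. Reactions: 10 μM each of ATP (at apparent Km) and S/T3-Sox, 0.4 nM p38a-activated MK2, pH 7.5 Tris/MgCl2 buffer. Initial rates yield % inhibition and IC50; single-exponential kobs values yield apparent kinact/KI.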
Sequence of p38a activated, mitogen-activated protein kinase-activated protein kinase 2 (MAPKAP-K2 or MK2) enzyme (P49137 whole entry): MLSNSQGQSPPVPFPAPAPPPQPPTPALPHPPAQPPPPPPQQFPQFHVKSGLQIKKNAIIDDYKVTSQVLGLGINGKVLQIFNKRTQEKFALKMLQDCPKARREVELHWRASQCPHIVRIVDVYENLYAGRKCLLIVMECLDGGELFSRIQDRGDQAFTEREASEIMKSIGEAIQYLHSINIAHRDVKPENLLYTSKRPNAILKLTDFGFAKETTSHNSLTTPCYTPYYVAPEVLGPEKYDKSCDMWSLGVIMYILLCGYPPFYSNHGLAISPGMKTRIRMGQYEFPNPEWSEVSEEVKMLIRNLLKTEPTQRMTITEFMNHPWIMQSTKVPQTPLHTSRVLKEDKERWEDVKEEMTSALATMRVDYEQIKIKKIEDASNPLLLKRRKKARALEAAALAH
With `C#Cc1cc(-c2ccc3c(ccc4sc5c(c43)NC[C@@H](C)NC5=O)n2)c(OCCN2CCCC2)nn1` [Example I-120, (R)-3-(6-ethynyl-3-(2-(pyrrolidin-1-yl)ethoxy)pyridazin-4-yl)-10-methyl-9,10,11,12-tetrahydro-8H-[1,4]diazepino[5′,6′:4,5]thieno[3,2-f]quinolin-8-one], the IC50 is 0.045 µM.

`C#Cc1cc(-c2ccc3c(ccc4sc5c(c43)NC[C@@H](C)NC5=O)n2)cc(N2CCC2)n1` [Example I-180, (R)-3-(2-(azetidin-1-yl)-6-ethynylpyridin-4-yl)-10-methyl-9,10,11,12-tetrahydro-8H-[1,4]diazepino[5′,6′:4,5]thieno[3,2-f]quinolin-8-one]: the IC50 was determined as 0.184 µM.

As to `C=Cc1cc(-c2ccc3c(ccc4sc5c(c43)NC[C@@H](C)NC5=O)n2)c(C#N)cn1` [Example I-161, (R)-4-(10-methyl-8-oxo-9,10,11,12-tetrahydro-8H-[1,4]diazepino[5′,6′:4,5]thieno[3,2-f]quinolin-3-yl)-6-vinylnicotinonitrile], the IC50 came to 0.002 µM.

In the case of `C#Cc1cc(-c2ccc3c(ccc4sc5c(c43)NC[C@@H](C)NC5=O)n2)cc(N2CC(F)(F)C2)n1` [Example I-183, (R)-3-(2-(3,3-difluoroazetidin-1-yl)-6-ethynylpyridin-4-yl)-10-methyl-9,10,11,12-tetrahydro-8H-[1,4]diazepino[5′,6′:4,5]thieno[3,2-f]quinolin-8-one], the IC50 is 0.839 µM.

Turning to `C=Cc1cc(-c2ccc3c(ccc4sc5c(c43)NC[C@@H](C)NC5=O)n2)c(CO)cn1` [Example I-252, (R)-3-(5-(hydroxymethyl)-2-vinylpyridin-4-yl)-10-methyl-9,10,11,12-tetrahydro-8H-[1,4]diazepino[5′,6′:4,5]thieno[3,2-f]quinolin-8-one], the IC50 came out at 0.005 µM.

`C#Cc1cc(-c2ccc3c(ccc4sc5c(c43)NC[C@@H](C)NC5=O)n2)ncn1` [Example I-38, (R)-3-(6-ethynylpyrimidin-4-yl)-10-methyl-9,10,11,12-tetrahydro-8H-[1,4]diazepino[5′,6′:4,5]thieno[3,2-f]quinolin-8-one]: the IC50 was found to be 0.005 µM.

As for `C=Cc1sncc1-c1ccc2c(ccc3sc4c(c32)NC[C@@H](C)NC4=O)n1` [Example I-229, (R)-10-methyl-3-(5-vinylisothiazol-4-yl)-9,10,11,12-tetrahydro-8H-[1,4]diazepino[5′,6′:4,5]thieno[3,2-f]quinolin-8-one], the IC50 turned out to be 0.123 µM.

“(R)-3-(2-chloro-5-(ethoxymethyl)pyrimidin-4-yl)-10-methyl-9,10,11,12-tetrahydro-8H-[1,4]diazepino[5′,6′:4,5]thieno[3,2-f]quinolin- [Example I-3]”: the IC50 is 0.107 µM.

On to `C=Cc1cc(-c2ccc3c(ccc4sc5c(c43)NC[C@@H](C)NC5=O)n2)c(CN2CCOCC2)cn1` [Example I-153, (R)-10-methyl-3-(5-(morpholinomethyl)-2-vinylpyridin-4-yl)-9,10,11,12-tetrahydro-8H-[1,4]diazepino[5′,6′:4,5]thieno[3,2-f]quinolin-8-one], for which the half-maximal inhibitory concentration (IC50) amounted to 0.023 µM.

On to `C=Cc1cc(-c2ccc3c(ccc4sc5c(c43)NC[C@@H](C)NC5=O)n2)c(OC(F)F)cn1` [Example I-247, (R)-3-(5-(difluoromethoxy)-2-vinylpyridin-4-yl)-10-methyl-9,10,11,12-tetrahydro-8H-[1,4]diazepino[5′,6′:4,5]thieno[3,2-f]quinolin-8-one], for which the IC50 is 0.36 µM.

On to `C=Cc1nc(C)cn1-c1ccc2c(ccc3sc4c(c32)NC[C@@H](C)NC4=O)n1` [Example I-206, (R)-10-methyl-3-(4-methyl-2-vinyl-1H-imidazol-1-yl)-9,10,11,12-tetrahydro-8H-[1,4]diazepino[5′,6′:4,5]thieno[3,2-f]quinolin-8-one], for which the IC50 came out at 0.004 µM.

For the molecule `C=Cc1nn(C)cc1-c1ccc2c(ccc3sc4c(c32)NC[C@@H](C)NC4=O)n1` [Example I-230, (R)-10-methyl-3-(1-methyl-3-vinyl-1H-pyrazol-4-yl)-9,10,11,12-tetrahydro-8H-[1,4]diazepino[5′,6′:4,5]thieno[3,2-f]quinolin-8-one], the IC50 is 0.044 µM.

On to `C#Cc1cc(-c2ccc3c(ccc4sc5c(c43)NC[C@@H](C)NC5=O)n2)cc(CN2CCC(OC(F)(F)F)CC2)n1` [Example I-190, (R)-3-(2-ethynyl-6-((4-(trifluoromethoxy)piperidin-1-yl)methyl)pyridin-4-yl)-10-methyl-9,10,11,12-tetrahydro-8H-[1,4]diazepino[5′,6′:4,5]thieno[3,2-f]quinolin-8-one], for which the IC50 amounted to 0.402 µM.

As to `C=Cc1ncc(F)c(-c2ccc3c(ccc4sc5c(c43)NC[C@@H](C)NC5=O)n2)n1` [Example I-2, (R)-3-(5-fluoro-2-vinylpyrimidin-4-yl)-10-methyl-9,10,11,12-tetrahydro-8H-[1,4]diazepino[5′,6′:4,5]thieno[3,2-f]quinolin-8-one], the half-maximal inhibitory concentration (IC50) was determined as 0.133 µM.

With `C=Cc1cc(-c2ccc3c(ccc4sc5c(c43)NC[C@@H](C)NC5=O)n2)cc(C2=CCN(C)CC2)n1` [Example I-101, (R)-10-methyl-3-(1′-methyl-6-vinyl-1′,2′,3′,6′-tetrahydro-[2,4′-bipyridin]-4-yl)-9,10,11,12-tetrahydro-8H-[1,4]diazepino[5′,6′:4,5]thieno[3,2-f]quinolin-8-one], the IC50 amounted to 0.008 µM.

`C=Cc1cc(-c2ccc3c(ccc4sc5c(c43)NC[C@@H](C)NC5=O)n2)cc(N2CCC(C(F)(F)F)CC2)n1` [Example I-202, (R)-10-methyl-3-(2-(4-(trifluoromethyl)piperidin-1-yl)-6-vinylpyridin-4-yl)-9,10,11,12-tetrahydro-8H-[1,4]diazepino[5′,6′:4,5]thieno[3,2-f]quinolin-8-one]: the IC50 is 0.674 µM.

With `[2H]C([2H])([2H])C(O)c1cnc(C=C)cc1-c1ccc2c(ccc3sc4c(c32)NC[C@@H](C)NC4=O)n1` (stereo partly drawn) [Example I-243, (10R)-3-(5-(1-hydroxyethyl-2,2,2-d3)-2-vinylpyridin-4-yl)-10-methyl-9,10,11,12-tetrahydro-8H-[1,4]diazepino[5′,6′:4,5]thieno[3,2-f]quinolin-8-one], the IC50 stood at 0.01 µM.

For `C#Cc1cc(-c2ccc3c(ccc4sc5c(c43)NC[C@@H](C)NC5=O)n2)c(Cl)cn1` [Example I-144, (R)-3-(5-chloro-2-ethynylpyridin-4-yl)-10-methyl-9,10,11,12-tetrahydro-8H-[1,4]diazepino[5′,6′:4,5]thieno[3,2-f]quinolin-8-one], the IC50 amounted to 0.678 µM.

Take `Cc1cnc(CC#N)cc1-c1ccc2c(ccc3sc4c(c32)NC[C@@H](C)NC4=O)n1` [Example I-267, (R)-2-(5-methyl-4-(10-methyl-8-oxo-9,10,11,12-tetrahydro-8H-[1,4]diazepino[5′,6′:4,5]thieno[3,2-f]quinolin-3-yl)pyridin-2-yl)acetonitrile]: the IC50 came to 1 µM.

As for `C[C@@H]1CNc2c(sc3ccc4nc(-c5ccnc(/C=C/C(F)(F)F)c5)ccc4c23)C(=O)N1` [Example I-199, (R,E)-10-methyl-3-(2-(3,3,3-trifluoroprop-1-en-1-yl)pyridin-4-yl)-9,10,11,12-tetrahydro-8H-[1,4]diazepino[5′,6′:4,5]thieno[3,2-f]quinolin-8-one], the IC50 came out at 0.636 µM.

For the molecule `C=Cc1ncc(CO)c(-c2ccc3c(ccc4sc5c(c43)NC[C@@H](C)NC5=O)n2)n1` [Example I-77, (R)-3-(5-(hydroxymethyl)-2-vinylpyrimidin-4-yl)-10-methyl-9,10,11,12-tetrahydro-8H-[1,4]diazepino[5′,6′:4,5]thieno[3,2-f]quinolin-8-one], the half-inhibitory concentration (IC50) worked out at 0.013 µM.

With `C=Cc1cc(C)nn1-c1ccc2c(ccc3sc4c(c32)NC[C@@H](C)NC4=O)n1` [Example I-236, (R)-10-methyl-3-(3-methyl-5-vinyl-1H-pyrazol-1-yl)-9,10,11,12-tetrahydro-8H-[1,4]diazepino[5′,6′:4,5]thieno[3,2-f]quinolin-8-one], the IC50 was found to be 0.157 µM.

As for `C#Cc1cc(-c2ccc3c(ccc4sc5c(c43)NC[C@@H](C)NC5=O)n2)cc(CN2CCC(OC)CC2)n1` [Example I-122, (R)-3-(2-ethynyl-6-((4-methoxypiperidin-1-yl)methyl)pyridin-4-yl)-10-methyl-9,10,11,12-tetrahydro-8H-[1,4]diazepino[5′,6′:4,5]thieno[3,2-f]quinolin-8-one], the IC50 was found to be 0.04 µM.

Consider `C=Cc1cc(-c2ccc3c(ccc4sc5c(c43)NC[C@@H](C)NC5=O)n2)c(C(=O)OC)nn1` [Example I-137, methyl (R)-4-(10-methyl-8-oxo-9,10,11,12-tetrahydro-8H-[1,4]diazepino[5′,6′:4,5]thieno[3,2-f]quinolin-3-yl)-6-vinylpyridazine-3-carboxylate], for which the IC50 was found to be 0.003 µM.

As to `C#Cc1cc(-c2ccc3c(ccc4sc5c(c43)NC[C@@H](C)NC5=O)n2)cc(CN2C[C@@H](C)O[C@H](C)C2)n1` [Example I-188, (R)-3-(2-(((2R,6R)-2,6-dimethylmorpholino)methyl)-6-ethynylpyridin-4-yl)-10-methyl-9,10,11,12-tetrahydro-8H-[1,4]diazepino[5′,6′:4,5]thieno[3,2-f]quinolin-8-one], the IC50 came to 0.025 µM.
